This note sets out measurements from ChEMBL document CHEMBL3739384 (Medchemcomm, 2015).

Common to all, as to type: cell-based, HEK-293T
One test concerns the target Histamine H4 receptor (Homo sapiens, UniProt Q9H3N8). Put plainly: Displacement of [3H]-histamine from human histamine H4 receptor expressed in HEK293T cells after 1 to 1.5 hrs by liquid scintillation counting analysis.
The target in test [1] is Beta-2 adrenergic receptor (Homo sapiens, UniProt P07550). The experiment in a line: Displacement of [3H]-dihydroalprenolol from human beta2 adrenergic receptor expressed in HEK293T cells after 1 to 1.5 hrs by liquid scintillation counting analysis.
Chain of Beta-2 adrenergic receptor (P07550 whole entry): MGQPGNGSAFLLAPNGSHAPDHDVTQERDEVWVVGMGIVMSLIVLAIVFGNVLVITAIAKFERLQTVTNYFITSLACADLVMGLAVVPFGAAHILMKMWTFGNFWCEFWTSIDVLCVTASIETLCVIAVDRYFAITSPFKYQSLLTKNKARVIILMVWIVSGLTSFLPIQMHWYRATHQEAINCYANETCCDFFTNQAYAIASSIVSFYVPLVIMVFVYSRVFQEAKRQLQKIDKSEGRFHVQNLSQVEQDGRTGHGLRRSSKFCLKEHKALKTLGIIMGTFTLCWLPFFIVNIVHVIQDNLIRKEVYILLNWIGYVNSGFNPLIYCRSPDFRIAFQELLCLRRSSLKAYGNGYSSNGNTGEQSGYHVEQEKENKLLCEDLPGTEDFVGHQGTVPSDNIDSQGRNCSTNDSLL
The target of the next test is Histamine H1 receptor (Homo sapiens, UniProt P35367). Put plainly: Displacement of [3H]-mepyramine from human histamine H1 receptor expressed in HEK293T cells after 1 to 1.5 hrs by liquid scintillation counting analysis.
Chain of Histamine H1 receptor (P35367 whole entry): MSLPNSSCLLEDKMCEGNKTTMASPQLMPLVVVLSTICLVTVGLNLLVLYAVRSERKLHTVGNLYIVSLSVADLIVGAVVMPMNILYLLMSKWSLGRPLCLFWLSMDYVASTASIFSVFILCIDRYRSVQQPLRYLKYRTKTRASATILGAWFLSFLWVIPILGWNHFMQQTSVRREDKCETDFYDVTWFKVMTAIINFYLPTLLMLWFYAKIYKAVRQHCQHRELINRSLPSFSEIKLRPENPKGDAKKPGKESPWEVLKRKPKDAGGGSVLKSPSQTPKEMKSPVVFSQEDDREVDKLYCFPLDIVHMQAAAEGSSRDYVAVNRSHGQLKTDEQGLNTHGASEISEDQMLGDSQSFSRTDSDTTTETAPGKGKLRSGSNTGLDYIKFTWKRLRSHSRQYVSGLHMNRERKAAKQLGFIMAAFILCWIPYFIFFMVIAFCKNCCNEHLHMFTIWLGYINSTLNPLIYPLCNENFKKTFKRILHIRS

Chain of Histamine H4 receptor (Q9H3N8 whole entry): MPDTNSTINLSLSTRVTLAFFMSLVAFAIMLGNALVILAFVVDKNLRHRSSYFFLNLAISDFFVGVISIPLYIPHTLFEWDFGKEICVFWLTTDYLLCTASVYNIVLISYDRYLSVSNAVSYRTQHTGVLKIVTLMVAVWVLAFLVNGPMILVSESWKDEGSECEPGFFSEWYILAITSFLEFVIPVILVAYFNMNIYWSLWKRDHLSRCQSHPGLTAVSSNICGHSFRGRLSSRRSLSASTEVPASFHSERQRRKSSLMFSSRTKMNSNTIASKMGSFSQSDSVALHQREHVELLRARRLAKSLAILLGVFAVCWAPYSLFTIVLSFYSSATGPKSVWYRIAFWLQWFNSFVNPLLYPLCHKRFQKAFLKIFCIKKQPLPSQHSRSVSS

In the case of `Cc1nc(N2CCN(C)CC2)c2oc3ccccc3c2n1`, the inhibition constant Ki was 0.148 µM on Histamine H4 receptor and above 10 µM in test [1].
Consider `CN1CCN(c2ncnc3c2oc2ccccc23)CC1`, for which the Ki at Histamine H4 receptor is 0.145 µM; in test [1], above 10 µM.
Consider `Cc1nnc2c(N3CCN(C)CC3)nc3ccccc3n12`, for which the Ki is 6.46 µM at Histamine H4 receptor and below 10 µM at Histamine H1 receptor.
For `Cc1cc2nc(SCCN(C)C)[nH]c2cc1C` the same measures were 6.92 µM and above 10 µM.
Regarding `CCc1nc(N2CCN(C)CC2)c2oc3ccccc3c2n1`, the inhibitory constant (Ki) is 0.269 µM on Histamine H4 receptor and above 10 µM in test [1].
`Cc1cc(N2CCN(C)CC2)nc(N2CCOCC2)n1`: the values for the Ki at Histamine H4 receptor and at Histamine H1 receptor were 6.92 µM and below 10 µM, respectively.
As to `COc1ccc2c(c1)[nH]c1c(N3CCN(C)CC3)ncnc12`, the values for the Ki (on Histamine H4 receptor; in test [1]) were 6.31 µM and above 10 µM, respectively.
Consider `CN(C)CCNc1ncnc2c1[nH]c1ccc(Cl)cc12`, for which the Ki is 5.89 µM on Histamine H4 receptor and above 10 µM in test [1].
Consider `COc1ccc2[nH]c3c(N4CCN(C)CC4)ncnc3c2c1`, for which the Ki at Histamine H4 receptor is 5.89 µM; in test [1], above 10 µM.
